In patent US4157392A, “Pharmacologically active substituted 1,2,4-triazines” (Diamond Shamrock Corporation, priority 1978, dated 1979):
Counter-ions that a name gives are not always drawn. Like-named read-outs stand apart in the source and are kept apart here.

Test system: phenylquinone writhing in mice
Experiment: Phenylquinone Writhing Assay (analgesia)
Type: in vivo, mouse (Carworth CF1 male mice)
Conditions: Mus musculus, po, read-out: Phenylquinone Writhing Assay (% Control), percent analgesia; for responders at 100 mg/kg: 100 mg/kg oral; for responders at 50 mg/kg: 50 mg/kg oral; for responders at 25 mg/kg: 25 mg/kg oral; for responders at 30 mg/kg: 30 mg/kg oral; for responders at 60 mg/kg: 60 mg/kg oral; for responders at 75 mg/kg: 75 mg/kg oral
Procedure: The phenylquinone writhing test was employed to evaluate analgesic activity according to the following procedure:
Phenylquinone (phenyl-p-benzoquinone, No. 7104, Eastman Organic Chemicals) is made up as a 0.02% aqueous solution in 5% ethyl alcohol. Phenylquinone solutions are made up fresh twice daily. Standard reference agents and the test compounds are dissolved or suspended in a 0.25% methylcellulose solution. A control group consisting of ten mice (Carworth CF1 male mice) are administered the 0.02% phenylquinone solution at a dose of 0.25 ml/mouse. The mice are housed individually and observed closely for ten minutes for exhibition of writhing. The onset of writhing occurs within three minutes and 100% of the mice must writhe within ten minutes. Test compounds are administered orally to groups of ten mice. The volume given is 0.01 ml/gram of body weight. Activity can be studied at 15, 30, 60, and 120 minutes after oral administration. After the designated time interval of a dose group has elapsed, the mice are challenged with phenylquinone intraperitoneally. Complete blocking of the writhing syndrom for the ten minute observation period in any one mouse is considered a positive analgesic response for that mouse. Conversely, if any mouse writhes definitely once it is considered not to be protected. The number of mice not writhing in group multiplied by ten equals percent analgesia for that dose at that time interval.

Row | SMILES | responders at 100 mg/kg (0.5 h, 30 Min.) [%] | responders at 100 mg/kg (1 h, 60 Min) [%] | responders at 100 mg/kg (0.25 h, 15 Min.) [%] | other results
1 | Cc1nnc(S(C)(=O)=O)nc1C [Example 79, 3-methylsulfonyl-5,6-dimethyl-1,2,4-triazine] | 30 | 30 | – | –
2 | CSc1nncc(-c2ccc(Cl)cc2)n1 [Example 74, 3-methylthio-5-(4'-chlorophenyl)-1,2,4-triazine] | – | – | 10 | –
3 | NC(Cc1ccccc1)C(=O)NNc1nncc(-c2ccccc2)n1 (stereo not shown) [Example 116, N2-(5-phenyl-1,2,4-triazin-3-yl) phenylalanine hydrazide (dihydrobromide hydrate)] | 60 | 60 | 30 | –
4 | CC(C)Oc1nnc(-c2ccccc2)c(-c2ccccc2)n1 [Example 95, 3-isopropoxy-5,6-diphenyl-1,2,4-triazine] | 10 | 20 | 10 | –
5 | COc1cc(-c2cnnc(SC)n2)ccc1OCc1ccccc1 [Example 83, 3-methylthio-5-(3'-methoxy-4'-benzyloxyphenyl)-1,2,4-triazine] | – | – | 10 | –
6 | COc1nncc(-c2c(C)cc(C)cc2C)n1 [Example 89, 3-methoxy-5-(2',4',6'-trimethylphenyl)-1,2,4-triazine] | – | 10 | 10 | –
7 | COc1nnc(-c2ccc(Cl)cc2)c(-c2ccc(Cl)cc2)n1 [Example 96, 3-methoxy-5,6-bis(4'-chlorophenyl)-1,2,4-triazine] | 30 | 10 | – | –
8 | CC(N)C(=O)NNc1nncc(-c2ccc(Cl)cc2)n1 (stereo not shown) [Example 114, N2-(5-p-chlorophenyl-1,2,4-triazin-3-yl) alanine hydrazide (dihydrobromide hydrate)] | – | – | – | responders at 50 mg/kg (0.25 h, 15 Min.): 50%; responders at 50 mg/kg (0.5 h, 30 Min.): 50%; responders at 50 mg/kg (1 h, 60 Min): 60%
9 | CSc1nncc(-c2c3ccccc3cc3ccccc23)n1 [Example 84, 3-methylthio-5-(9'-anthracenyl)-1,2,4-triazine] | 10 | 20 | – | –
10 | NNc1nncc(-c2cccc(C(F)(F)F)c2)n1 [Example 67, 3-hydrazino-5-(3'-trifluoromethylphenyl)-1,2,4-triazine] | 60 | 40 | 10 | responders at 50 mg/kg (0.25 h, 15 Min.): 70%; responders at 25 mg/kg (0.5 h, 30 Min.): 20%; responders at 50 mg/kg (0.5 h, 30 Min.): 30%; responders at 25 mg/kg (1 h, 60 Min): 10%; responders at 50 mg/kg (1 h, 60 Min): 30%
11 | COc1ccc(-c2cnnc(OC)n2)cc1 [Example 91, 3-methoxy-5-(4'-methoxyphenyl)-1,2,4-triazine] | 10 | – | 30 | –
12 | CSc1nncc(-c2ccc(Cl)s2)n1 [Example 70, 3-methylthio-5-(5'-chloro-2'-thienyl)-1,2,4-triazine] | 20 | 10 | 10 | responders at 50 mg/kg (0.25 h, 15 Min.): 10%; responders at 50 mg/kg (0.5 h, 30 Min.): 20%; responders at 50 mg/kg (1 h, 60 Min): 10%
13 | CSc1nnc(-c2ccco2)c(-c2ccco2)n1 [Example 76, 3-methylthio-5,6-bis-(2'-furyl)-1,2,4-triazine] | – | – | – | responders at 30 mg/kg (0.25 h, 15 Min.): 10%
14 | CSc1nncc(-c2cccc(Cl)c2)n1 [Example 15, 3-methylthio-5-(3'-chlorophenyl)-1,2,4-triazine] | – | – | – | responders at 60 mg/kg (0.25 h, 15 Min.): 10%
15 | Oc1nncc(-c2ccccc2)n1 [Example 90, 3-hydroxy-5-phenyl-1,2,4-triazine] | – | 20 | – | –
16 | COc1nncc(-c2cccc(Cl)c2)n1 [Example 75, 3-methoxy-5-(3'-chlorophenyl)-1,2,4-triazine] | – | – | – | responders at 60 mg/kg (0.25 h, 15 Min.): 100%; responders at 60 mg/kg (0.5 h, 30 Min.): 90%; responders at 60 mg/kg (1 h, 60 Min): 70%

Row | SMILES | responders at 100 mg/kg (0.5 h, 30 Min.) [%] | responders at 100 mg/kg (1 h, 60 Min) [%] | responders at 100 mg/kg (0.25 h, 15 Min.) [%] | other results
17 | NNc1nnc(-c2ccco2)c(-c2ccco2)n1 [Example 77, 3-hydrazino-5,6-bis-(2'-furyl)-1,2,4-triazine] | – | – | – | responders at 25 mg/kg (0.25 h, 15 Min.): 20%; responders at 75 mg/kg (0.25 h, 15 Min.): 20%; responders at 25 mg/kg (0.5 h, 30 Min.): 20%; responders at 75 mg/kg (0.5 h, 30 Min.): 10%; responders at 25 mg/kg (1 h, 60 Min): 20%; responders at 75 mg/kg (1 h, 60 Min): 10%
18 | CSc1nncc(C(c2ccccc2)c2ccccc2)n1 [Example 87, 3-methylthio-5-diphenylmethyl-1,2,4-triazine] | – | 10 | 10 | –
19 | COc1ccc(-c2nnc(SC)nc2-c2ccc(OC)cc2)cc1 [Example 93, 3-methylthio-5,6-bis(4'-methoxyphenyl)-1,2,4-triazine] | 30 | 30 | 20 | –
20 | CSc1nncc(-c2ccc(C)cc2)n1 [Example 72, 3-methylthio-(4'-methylphenyl)-1,2,4-triazine] | – | – | 20 | –
21 | c1ccc(-c2nnc(-c3ccccn3)nc2-c2ccccc2)cc1 [Example 81, 3-(2'-pyridyl)-5,6-diphenyl-1,2,4-triazine] | 20 | – | 10 | –
22 | COc1cccc(-c2cnnc(OC)n2)c1 [Example 69, 3-methoxy-5-(3'-methoxyphenyl)-1,2,4-triazine] | 20 | 10 | 10 | responders at 50 mg/kg (0.25 h, 15 Min.): 10%; responders at 50 mg/kg (0.5 h, 30 Min.): 20%; responders at 50 mg/kg (1 h, 60 Min): 20%
23 | COc1nnc(-c2ccc(OC)c(OC)c2)c(-c2ccc(OC)c(OC)c2)n1 [Example 92, 3-methoxy-5,6-bis(3',4'-dimethoxyphenyl)-1,2,4-triazine] | 10 | – | 10 | –
24 | Cc1ccc(-c2nnc(C)nc2-c2ccc(C)cc2)cc1 [Example 78, 3-methyl-5,6-bis-(4'-methylphenyl)-1,2,4-triazine] | 80 | 50 | 50 | responders at 50 mg/kg (0.25 h, 15 Min.): 20%; responders at 50 mg/kg (0.5 h, 30 Min.): 20%; responders at 50 mg/kg (1 h, 60 Min): 20%
25 | COc1ccc(-c2nnc(SC)nc2-c2ccc(OC)c(OC)c2)cc1OC [Example 80, 3-methylthio-5,6-bis(3',4'-dimethoxyphenyl)-1,2,4-triazine] | 10 | – | 10 | –
26 | COc1ncc(-c2ccccc2)nn1 [Example 82, 3-methoxy-6-phenyl-1,2,4-triazine] | – | – | – | responders at 25 mg/kg (0.25 h, 15 Min.): 10%; responders at 50 mg/kg (0.25 h, 15 Min.): 10%; responders at 50 mg/kg (0.5 h, 30 Min.): 10%
27 | COc1cccc(-c2cnnc(SC)n2)c1 [Example 68, 3-methylthio-5-(3'-methoxyphenyl)-1,2,4-triazine] | – | – | – | responders at 30 mg/kg (0.25 h, 15 Min.): 10%
28 | COc1nncc(-c2cccs2)n1 [Example 66, 3-methoxy-5-(2'-thienyl)-1,2,4-triazine] | – | – | – | responders at 25 mg/kg (0.25 h, 15 Min.): 20%; responders at 50 mg/kg (0.25 h, 15 Min.): 80%; responders at 60 mg/kg (0.25 h, 15 Min.): 100%; responders at 25 mg/kg (0.5 h, 30 Min.): 10%; responders at 50 mg/kg (0.5 h, 30 Min.): 50%; responders at 60 mg/kg (0.5 h, 30 Min.): 80%; responders at 50 mg/kg (1 h, 60 Min): 20%; responders at 60 mg/kg (1 h, 60 Min): 40%
29 | COc1nncc(-c2c3ccccc3cc3ccccc23)n1 [Example 85, 3-methoxy-5-(9'-anthracenyl)-1,2,4-triazine] | – | – | 10 | –
30 | CSc1nncc(-c2cccc3ccccc23)n1 [Example 71, 3-methylthio-5-(1'-naphthyl)-1,2,4-triazine] | 10 | 20 | – | –
31 | CSc1nncc(-c2ccc3c(c2)OCO3)n1 [Example 86, 3-methylthio-5-(3',4'-methylenedioxyphenyl)-1,2,4-triazine] | – | – | 20 | –
32 | CCOc1ccc(-c2cnnc(SC)n2)cc1 [Example 88, 3-methylthio-5-(4'-ethoxyphenyl)-1,2,4-triazine] | – | – | 10 | –
